In the kinase profiling compilation of Christmann-Franck et al. (2016):
pIC50: −log10 of the molar value. “And” between values parts separate entries of the source, which are not always exact repeats. Equal values may be shown once.

Columns and labels:
Test in all cases: radiometric filter-binding kinase assay
PDPK1 (human) = PDPK1 (human) (UniProt O15530); settings: compound 1.0 µM
[1] = system: AKT2 (human), P31751 [S474D]
MKNK2 (human) = MKNK2 (human) (UniProt Q9HBH9)
MAPK11 (human) = MAPK11 (human) (UniProt Q15759)
TBK1 (human) = TBK1 (human) (UniProt Q9UHD2)
MAPK15 (human) = MAPK15 (human) (UniProt Q8TD08)
JAK2 JH1 JH2 (human) = JAK2 JH1 JH2 (human) (UniProt O60674)
Chain of JAK2 JH1 JH2 (human) (O60674 whole entry, looked up): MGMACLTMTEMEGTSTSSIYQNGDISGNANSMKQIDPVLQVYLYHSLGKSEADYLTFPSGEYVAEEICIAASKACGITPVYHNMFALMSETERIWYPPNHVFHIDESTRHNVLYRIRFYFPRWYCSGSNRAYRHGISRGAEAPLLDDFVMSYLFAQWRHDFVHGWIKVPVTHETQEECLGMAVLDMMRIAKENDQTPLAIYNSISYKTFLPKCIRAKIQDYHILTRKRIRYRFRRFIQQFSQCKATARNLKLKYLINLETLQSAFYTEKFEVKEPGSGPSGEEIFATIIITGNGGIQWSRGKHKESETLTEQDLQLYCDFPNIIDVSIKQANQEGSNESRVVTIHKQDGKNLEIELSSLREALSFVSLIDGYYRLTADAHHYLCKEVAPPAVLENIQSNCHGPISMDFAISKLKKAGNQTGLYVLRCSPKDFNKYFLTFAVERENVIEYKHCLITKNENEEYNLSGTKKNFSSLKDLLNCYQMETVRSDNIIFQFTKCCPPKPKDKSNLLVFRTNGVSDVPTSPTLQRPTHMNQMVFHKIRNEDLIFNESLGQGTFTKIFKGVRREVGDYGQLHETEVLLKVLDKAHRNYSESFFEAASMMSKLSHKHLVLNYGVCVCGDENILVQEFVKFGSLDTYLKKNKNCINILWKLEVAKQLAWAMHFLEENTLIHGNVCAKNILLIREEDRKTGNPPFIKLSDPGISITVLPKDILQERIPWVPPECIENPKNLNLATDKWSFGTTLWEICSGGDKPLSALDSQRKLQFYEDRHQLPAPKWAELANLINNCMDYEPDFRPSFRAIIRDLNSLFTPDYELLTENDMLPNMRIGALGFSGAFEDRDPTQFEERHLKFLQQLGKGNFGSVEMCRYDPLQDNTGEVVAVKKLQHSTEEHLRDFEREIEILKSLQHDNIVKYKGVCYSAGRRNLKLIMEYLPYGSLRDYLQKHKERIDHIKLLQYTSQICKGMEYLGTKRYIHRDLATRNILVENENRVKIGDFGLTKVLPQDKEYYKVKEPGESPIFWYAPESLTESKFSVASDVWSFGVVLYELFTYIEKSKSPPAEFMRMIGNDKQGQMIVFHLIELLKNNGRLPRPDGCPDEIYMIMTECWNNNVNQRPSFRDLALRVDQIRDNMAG

EPHA4 (human) = EPHA4 (human) (UniProt P54764)
MARK4 (human) = MARK4 (human) (UniProt Q96L34)
HIPK2 (human) = HIPK2 (human) (UniProt Q9H2X6)
DYRK1A (human) = DYRK1A (human) (UniProt Q13627)
IKBKB (human) = IKBKB (human) (UniProt O14920)
Chain of IKBKB (human) (O14920 whole entry, looked up): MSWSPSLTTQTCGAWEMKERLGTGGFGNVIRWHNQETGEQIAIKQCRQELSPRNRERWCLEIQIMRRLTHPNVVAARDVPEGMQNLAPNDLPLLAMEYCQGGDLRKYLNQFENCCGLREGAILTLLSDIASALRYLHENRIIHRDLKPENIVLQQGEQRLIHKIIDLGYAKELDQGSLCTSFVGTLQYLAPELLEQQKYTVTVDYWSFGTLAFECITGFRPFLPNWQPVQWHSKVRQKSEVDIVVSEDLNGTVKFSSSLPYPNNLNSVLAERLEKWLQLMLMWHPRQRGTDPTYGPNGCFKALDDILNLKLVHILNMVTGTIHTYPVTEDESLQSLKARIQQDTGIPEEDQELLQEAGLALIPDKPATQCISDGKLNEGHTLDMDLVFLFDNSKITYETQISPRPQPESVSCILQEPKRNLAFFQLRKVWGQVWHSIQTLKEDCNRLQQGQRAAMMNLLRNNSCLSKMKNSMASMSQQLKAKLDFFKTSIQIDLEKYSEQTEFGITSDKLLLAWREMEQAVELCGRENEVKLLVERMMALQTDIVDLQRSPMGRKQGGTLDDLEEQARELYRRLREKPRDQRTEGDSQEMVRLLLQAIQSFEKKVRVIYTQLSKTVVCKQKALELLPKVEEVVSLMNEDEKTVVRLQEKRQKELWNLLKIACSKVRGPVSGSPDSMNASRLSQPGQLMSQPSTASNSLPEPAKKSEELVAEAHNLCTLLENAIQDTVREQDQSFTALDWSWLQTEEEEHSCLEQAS

NEK2 (human) = NEK2 (human) (UniProt P51955)
Chain of NEK2 (human) (P51955 whole entry, looked up): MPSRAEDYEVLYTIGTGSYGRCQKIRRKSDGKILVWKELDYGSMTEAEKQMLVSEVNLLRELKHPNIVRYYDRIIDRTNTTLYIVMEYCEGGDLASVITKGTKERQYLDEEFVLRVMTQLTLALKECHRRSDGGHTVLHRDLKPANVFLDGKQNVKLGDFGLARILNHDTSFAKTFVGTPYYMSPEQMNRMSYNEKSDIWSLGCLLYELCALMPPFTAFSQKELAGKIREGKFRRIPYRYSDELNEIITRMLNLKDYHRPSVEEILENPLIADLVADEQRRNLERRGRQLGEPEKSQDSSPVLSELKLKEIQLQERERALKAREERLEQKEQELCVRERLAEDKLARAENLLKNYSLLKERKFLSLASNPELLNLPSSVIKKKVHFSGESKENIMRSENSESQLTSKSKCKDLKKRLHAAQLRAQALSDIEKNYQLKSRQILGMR

NTRK1 (human) = NTRK1 (human) (UniProt P04629)
INSR (human) = INSR (human) (UniProt P06213)
ERBB4 (human) = ERBB4 (human) (UniProt Q15303)
RIPK2 (human) = RIPK2 (human) (UniProt O43353)
SRPK1 (human) = SRPK1 (human) (UniProt Q96SB4)
Chain of SRPK1 (human) (Q96SB4 whole entry, looked up): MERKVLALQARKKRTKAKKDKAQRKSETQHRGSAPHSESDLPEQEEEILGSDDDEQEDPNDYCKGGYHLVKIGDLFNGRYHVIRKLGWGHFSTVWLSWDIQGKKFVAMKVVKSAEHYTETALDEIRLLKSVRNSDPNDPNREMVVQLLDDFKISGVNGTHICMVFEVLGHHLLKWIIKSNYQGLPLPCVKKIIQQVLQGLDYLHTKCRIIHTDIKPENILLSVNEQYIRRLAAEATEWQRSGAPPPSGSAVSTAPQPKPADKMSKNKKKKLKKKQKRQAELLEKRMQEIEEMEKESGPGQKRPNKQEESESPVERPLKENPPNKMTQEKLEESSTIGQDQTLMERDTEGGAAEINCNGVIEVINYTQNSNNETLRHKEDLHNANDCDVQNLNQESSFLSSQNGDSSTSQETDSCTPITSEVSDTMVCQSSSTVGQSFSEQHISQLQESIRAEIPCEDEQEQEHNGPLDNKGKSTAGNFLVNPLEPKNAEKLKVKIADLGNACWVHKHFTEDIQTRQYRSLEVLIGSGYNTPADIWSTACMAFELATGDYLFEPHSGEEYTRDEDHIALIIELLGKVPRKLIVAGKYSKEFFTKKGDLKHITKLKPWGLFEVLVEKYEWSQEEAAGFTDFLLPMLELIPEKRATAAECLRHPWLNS

[2] = system: RPS6KB1 (human), P23443 [T412E]
Chain of RPS6KB1 (human), P23443 [T412E] (P23443 whole entry T412E, looked up): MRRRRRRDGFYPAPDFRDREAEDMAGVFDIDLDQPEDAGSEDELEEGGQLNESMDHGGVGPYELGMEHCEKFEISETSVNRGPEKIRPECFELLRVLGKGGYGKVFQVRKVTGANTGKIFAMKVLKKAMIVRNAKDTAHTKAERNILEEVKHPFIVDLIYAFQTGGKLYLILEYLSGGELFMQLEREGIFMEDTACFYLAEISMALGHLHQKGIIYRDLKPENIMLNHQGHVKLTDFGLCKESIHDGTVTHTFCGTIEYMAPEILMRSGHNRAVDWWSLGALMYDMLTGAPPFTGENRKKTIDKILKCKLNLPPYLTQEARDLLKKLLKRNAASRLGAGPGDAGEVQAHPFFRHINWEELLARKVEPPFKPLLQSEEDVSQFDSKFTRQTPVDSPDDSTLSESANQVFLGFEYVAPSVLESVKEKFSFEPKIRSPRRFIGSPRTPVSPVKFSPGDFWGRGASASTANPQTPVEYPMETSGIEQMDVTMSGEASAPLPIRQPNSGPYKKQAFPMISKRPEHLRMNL

EPHB2 (human) = EPHB2 (human) (UniProt P29323)
HIPK1 (human) = HIPK1 (human) (UniProt Q86Z02)
PKN2 (human) = PKN2 (human) (UniProt Q16513)
PRKCA (human) = PRKCA (human) (UniProt P17252)
CaMK1 (human) = CaMK1 (human) (UniProt Q14012)
Chain of CaMK1 (human) (Q14012 whole entry, looked up): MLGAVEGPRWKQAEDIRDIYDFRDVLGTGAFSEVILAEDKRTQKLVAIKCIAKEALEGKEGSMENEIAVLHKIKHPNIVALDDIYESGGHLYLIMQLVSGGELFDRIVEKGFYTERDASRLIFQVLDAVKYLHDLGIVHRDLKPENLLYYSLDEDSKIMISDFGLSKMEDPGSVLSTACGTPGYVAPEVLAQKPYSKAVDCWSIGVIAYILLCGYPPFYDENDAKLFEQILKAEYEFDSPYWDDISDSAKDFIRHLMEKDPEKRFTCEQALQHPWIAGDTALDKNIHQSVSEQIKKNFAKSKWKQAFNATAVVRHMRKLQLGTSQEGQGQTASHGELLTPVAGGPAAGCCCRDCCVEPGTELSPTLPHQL

FLT1 (human) = FLT1 (human) (UniProt P17948)
[3] = system: PAK2 (human), Q13177 [T402E]
MAPK1 (human) = MAPK1 (human) (UniProt P28482)
TTK (human) = TTK (human) (UniProt P33981)
MAPK10 (human) = MAPK10 (human) (UniProt P53779)
CHEK1 (human) = CHEK1 (human) (UniProt O14757)
NEK6 (human) = NEK6 (human) (UniProt Q9HC98)
MST4 (human) = MST4 (human) (UniProt Q9P289)
Chain of MST4 (human) (Q9P289 whole entry, looked up): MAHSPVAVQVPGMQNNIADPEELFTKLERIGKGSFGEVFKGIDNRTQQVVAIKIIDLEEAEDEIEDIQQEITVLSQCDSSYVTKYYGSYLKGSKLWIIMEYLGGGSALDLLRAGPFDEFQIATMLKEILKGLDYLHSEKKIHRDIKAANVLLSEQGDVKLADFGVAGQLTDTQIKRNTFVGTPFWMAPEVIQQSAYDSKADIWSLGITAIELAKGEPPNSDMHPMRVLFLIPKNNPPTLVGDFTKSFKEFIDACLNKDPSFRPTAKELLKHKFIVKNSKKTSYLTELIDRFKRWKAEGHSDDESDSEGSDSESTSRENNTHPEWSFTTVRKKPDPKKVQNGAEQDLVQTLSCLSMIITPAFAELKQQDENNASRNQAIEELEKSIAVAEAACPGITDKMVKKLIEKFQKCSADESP

EPHA2 (human) = EPHA2 (human) (UniProt P29317)
LRRK2 (human) = LRRK2 (human) (UniProt Q5S007)

Chain of MKNK2 (human) (Q9HBH9 whole entry, looked up): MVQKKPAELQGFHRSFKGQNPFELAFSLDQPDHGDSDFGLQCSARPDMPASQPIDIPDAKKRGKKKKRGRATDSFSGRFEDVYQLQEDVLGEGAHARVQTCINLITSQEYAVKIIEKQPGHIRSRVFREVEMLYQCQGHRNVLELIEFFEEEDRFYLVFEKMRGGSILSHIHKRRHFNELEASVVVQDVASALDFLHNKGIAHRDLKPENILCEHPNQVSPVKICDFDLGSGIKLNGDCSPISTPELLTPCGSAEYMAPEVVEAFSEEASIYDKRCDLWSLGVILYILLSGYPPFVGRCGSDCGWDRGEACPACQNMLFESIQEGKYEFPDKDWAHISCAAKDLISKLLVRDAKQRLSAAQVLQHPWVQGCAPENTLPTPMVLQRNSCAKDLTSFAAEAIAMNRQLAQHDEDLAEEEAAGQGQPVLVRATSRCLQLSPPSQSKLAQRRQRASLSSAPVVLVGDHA

## COc1cc(C(=O)N2CCC(N3CCN(C)CC3)CC2)ccc1Nc1ncc2c(n1)N(C)c1ccccc1C(=O)N2C
PDPK1 (human)
  residual activity: 68% and 74%
[1]; compound 1.0 µM
  residual activity: 93%
[1]; compound 10.0 µM
  residual activity: 79%
MKNK2 (human)
  pIC50: 5.14
MKNK2 (human); compound 1.0 µM
  residual activity: 72%
MKNK2 (human); compound 10.0 µM
  residual activity: 22%
MAPK11 (human); compound 1.0 µM
  residual activity: 73%
MAPK11 (human); compound 10.0 µM
  residual activity: 45%
TBK1 (human); compound 1.0 µM
  residual activity: 94%
TBK1 (human); compound 10.0 µM
  residual activity: 104%
MAPK15 (human); compound 1.0 µM
  residual activity: 86%
MAPK15 (human); compound 10.0 µM
  residual activity: 104%
JAK2 JH1 JH2 (human); compound 1.0 µM
  residual activity: 74%
JAK2 JH1 JH2 (human); compound 10.0 µM
  residual activity: 80%
EPHA4 (human); compound 1.0 µM
  residual activity: 88%
EPHA4 (human); compound 10.0 µM
  residual activity: 94%
MARK4 (human); compound 1.0 µM
  residual activity: 94%
MARK4 (human); compound 10.0 µM
  residual activity: 87%
HIPK2 (human); compound 1.0 µM
  residual activity: 76%
HIPK2 (human); compound 10.0 µM
  residual activity: 86%
DYRK1A (human); compound 1.0 µM
  residual activity: 87%
DYRK1A (human); compound 10.0 µM
  residual activity: 95%
IKBKB (human); compound 1.0 µM
  residual activity: 103%
IKBKB (human); compound 10.0 µM
  residual activity: 106%
NEK2 (human); compound 1.0 µM
  residual activity: 92%
NEK2 (human); compound 10.0 µM
  residual activity: 110%
NTRK1 (human); compound 1.0 µM
  residual activity: 79%
NTRK1 (human); compound 10.0 µM
  residual activity: 32%
INSR (human); compound 1.0 µM
  residual activity: 104%
INSR (human); compound 10.0 µM
  residual activity: 103%
ERBB4 (human); compound 1.0 µM
  residual activity: 68%
ERBB4 (human); compound 10.0 µM
  residual activity: 72%
RIPK2 (human); compound 1.0 µM
  residual activity: 103%
RIPK2 (human); compound 10.0 µM
  residual activity: 101%
SRPK1 (human); compound 1.0 µM
  residual activity: 98%
SRPK1 (human); compound 10.0 µM
  residual activity: 110%
[2]; compound 1.0 µM
  residual activity: 86%
[2]; compound 10.0 µM
  residual activity: 81%
EPHB2 (human); compound 1.0 µM
  residual activity: 96%
EPHB2 (human); compound 10.0 µM
  residual activity: 93%
HIPK1 (human); compound 1.0 µM
  residual activity: 94%
HIPK1 (human); compound 10.0 µM
  residual activity: 104%
PKN2 (human); compound 1.0 µM
  residual activity: 74%
PKN2 (human); compound 10.0 µM
  residual activity: 80%
PRKCA (human); compound 1.0 µM
  residual activity: 95%
PRKCA (human); compound 10.0 µM
  residual activity: 97%
CaMK1 (human); compound 1.0 µM
  residual activity: 75%
CaMK1 (human); compound 10.0 µM
  residual activity: 43%
FLT1 (human); compound 1.0 µM
  residual activity: 64%
FLT1 (human); compound 10.0 µM
  residual activity: 61%
[3]; compound 1.0 µM
  residual activity: 97%
[3]; compound 10.0 µM
  residual activity: 110%
MAPK1 (human); compound 1.0 µM
  residual activity: 83%
MAPK1 (human); compound 10.0 µM
  residual activity: 85%
TTK (human); compound 1.0 µM
  residual activity: 84%
TTK (human); compound 10.0 µM
  residual activity: 91%
MAPK10 (human); compound 1.0 µM
  residual activity: 92%
MAPK10 (human); compound 10.0 µM
  residual activity: 109%
CHEK1 (human); compound 1.0 µM
  residual activity: 82%
CHEK1 (human); compound 10.0 µM
  residual activity: 96%
NEK6 (human); compound 1.0 µM
  residual activity: 90%
NEK6 (human); compound 10.0 µM
  residual activity: 110%
MST4 (human); compound 1.0 µM
  residual activity: 90%
MST4 (human); compound 10.0 µM
  residual activity: 87%
EPHA2 (human); compound 1.0 µM
  residual activity: 98%
EPHA2 (human); compound 10.0 µM
  residual activity: 91%
LRRK2 (human)
  pIC50: 7.89
